Reference: publication PMC12638379, “An innovative approach to development of new pyrazolylquinolin-2-one hybrids as dual EGFR and BRAF^V600E inhibitors” (Molecular Diversity, 2025)
Where two headings read alike, the source gives them in different places.

What was measured:
BRAF^V600E = BRAF^V600E (Homo sapiens, UniProt P15056, V600E); assay: BRAF^V600E inhibitory assay (B-Raf (V600E) Kinase Assay); format: biochemical; conditions: read-out: BRAF^V600E inhibition IC50 ± SEM
[1] = system: breast cancer (T47D) cell line; assay: MTT antiproliferative assay, T-47D
Protocol: The median inhibitory concentration (IC50) and GI50 (average IC50) against the three cancer cell lines were calculated. See Appendix B.
Cells were cultured using DMEM (Invitrogen/Life Technologies) supplemented with 10% FBS (Hyclone,), 10 ug/ml of insulin (Sigma), and 1% penicillin-streptomycin. Plate cells (cells density 1.2 – 1.8 × 10,000 cells/well) in a volume of 100µl complete growth medium + 100 ul of the tested compound per well in a 96-well plate for 24 hours before the MTT assay. In atypical experiment, one hundred micro liters of serial 10-fold diluted sterile tested compounds were added to final concentrations of […] using culture media as negative control. After 24 h of culture incubation and supernatants discarded. HOP-92 lung, MOLT-4 leukemia, and T-47D breast cell lines were trypsinized and washed with Ca2/Mg2 free PBS (pH 7.2). we removed cultures from incubator into laminar flow hood or other sterile work area. […] Each test should include a blank containing complete medium without cells. […] Add reconstituted MTT in an amount equal to 10% of the culture medium volume. Return cultures to incubator for 2-4 hours depending on cell type and maximum cell density. […] Spectrophotometrically absorbance was measured at a wavelength of 570 nm. Measure the background absorbance of multiwell plates at 690 nm and subtract from the […] measurement. Results from all experiments were recorded and the percentage of viable cells was calculated.

[2] = MTT cytotoxicity on normal cell line WI-38; conditions: human, WI-38 normal cells, % viability
normal cell line WI-38 = assay: MTT cytotoxicity on normal cell line WI-38
NCI 60 cancer cell lines = assay: NCI anticancer screening over a panel of 60 cancer cells, single concentration 10 µM; format: cell-based, human; conditions: Homo sapiens, read-out: % Growth Inhibition (GI %)
How it was run: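 Primary single-dose screen at 10 µM over the NCI panel of 60 human tumour cell lines (leukemia, CNS, lung, colon, kidney, ovary, breast, prostate). The standard NCI Developmental Therapeutics Program protocol was used.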

Sequence of BRAF^V600E (P15056 whole entry V600E): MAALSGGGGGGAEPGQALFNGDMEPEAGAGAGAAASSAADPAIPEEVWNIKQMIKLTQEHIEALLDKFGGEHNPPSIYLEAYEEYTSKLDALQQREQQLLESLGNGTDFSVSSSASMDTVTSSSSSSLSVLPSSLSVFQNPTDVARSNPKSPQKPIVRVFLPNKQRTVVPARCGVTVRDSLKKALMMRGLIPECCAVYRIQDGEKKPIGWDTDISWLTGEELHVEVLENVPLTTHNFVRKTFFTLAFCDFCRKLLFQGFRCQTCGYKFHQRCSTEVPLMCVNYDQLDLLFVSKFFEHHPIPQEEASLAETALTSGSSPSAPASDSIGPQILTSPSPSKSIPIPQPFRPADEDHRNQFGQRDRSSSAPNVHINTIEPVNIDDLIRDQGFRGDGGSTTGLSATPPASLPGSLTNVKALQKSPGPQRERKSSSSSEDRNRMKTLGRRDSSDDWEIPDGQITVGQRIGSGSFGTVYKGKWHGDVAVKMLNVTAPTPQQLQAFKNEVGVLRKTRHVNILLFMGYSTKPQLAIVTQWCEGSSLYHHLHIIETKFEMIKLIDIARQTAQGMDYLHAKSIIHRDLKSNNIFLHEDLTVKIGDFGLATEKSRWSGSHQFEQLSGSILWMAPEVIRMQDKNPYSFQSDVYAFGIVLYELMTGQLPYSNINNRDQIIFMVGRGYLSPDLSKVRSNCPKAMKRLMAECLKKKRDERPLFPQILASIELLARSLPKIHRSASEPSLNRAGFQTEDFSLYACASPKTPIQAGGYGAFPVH

C/C(=N\Nc1ccc(S(N)(=O)=O)cc1)c1cnn(-c2cc(=O)[nH]c3ccc(Cl)cc23)c1C [Compound 4d, (E)-4-(2-(1-(1-(6-chloro-2-oxo-1,2-dihydroquinolin-4-yl)-5-methyl-1H-pyrazol-4-yl)ethylidene)hydrazineyl)benzenesulfonamide]
IC50 (BRAF^V600E): 249 ± 10 nM
viability at 0.4 µM ([1]; Homo sapiens, T47D, T-47D, MTT, 0.4uM): 77.2%
viability at 1.6 µM ([1]; Homo sapiens, T47D, T-47D, MTT, 1.6uM): 68.1%
viability at 6.3 µM ([1]; Homo sapiens, T47D, T-47D, MTT, 6.3uM): 56.8%
viability at 25 µM ([1]; Homo sapiens, T47D, T-47D, MTT, 25uM): 45.8%
viability at 100 µM ([1]; Homo sapiens, T47D, T-47D, MTT, 100uM): 33.6%
IC50 ([1]; Homo sapiens, T47D, read-out: Antiproliferative activity IC50 ± SEM, T-47D, MTT): 13.8 ± 0.48 µM
% viability ([1]; T-47D, MTT, 1.6uM, listed as Ws4, 1.6 µM): 68.09%
% viability ([1]; T-47D, MTT, 6.3uM, listed as Ws4, 6.3 µM): 56.85%
% viability ([1]; T-47D, MTT, 25uM, listed as Ws4, 25 µM): 45.78%
% viability ([1]; T-47D, MTT, 100uM, listed as Ws4, 100 µM): 33.56%
viability at 24 h, 0.4 µM ([2]; WI38, 0.4uM (log conc. -0.41)): 80.9%
viability at 24 h, 1.6 µM ([2]; WI38, 1.6uM (log conc. 0.19)): 73.3%
viability at 24 h, 6.3 µM ([2]; WI38, 6.3uM (log conc. 0.8)): 63.5%
viability at 24 h, 25 µM ([2]; WI38, 25uM (log conc. 1.4)): 56.2%
viability at 24 h, 100 µM ([2]; WI38, 100uM (log conc. 2)): 46.8%
IC50 (normal cell line WI-38; Homo sapiens, read-out: Antiproliferative activity IC50 ± SEM): 62.5 ± 2.49 µM
% viability (normal cell line WI-38; WI38, 0.4uM (log conc. -0.41), listed as Ws4, 0.4 µM): 80.87%
% viability (normal cell line WI-38; WI38, 1.6uM (log conc. 0.19), listed as Ws4, 1.6 µM): 73.32%
% viability (normal cell line WI-38; WI38, 6.3uM (log conc. 0.8), listed as Ws4, 6.3 µM): 63.52%
% viability (normal cell line WI-38; WI38, 25uM (log conc. 1.4), listed as Ws4, 25 µM): 56.21%
% viability (normal cell line WI-38; WI38, 100uM (log conc. 2), listed as Ws4, 100 µM): 46.82%
inhibition at 10 µM (NCI 60 cancer cell lines; 786-0, Renal cancer 786-0, 10 μM): 14.4%
inhibition at 10 µM (NCI 60 cancer cell lines; A498, Renal cancer A498, 10 μM): < 5%
inhibition at 10 µM (NCI 60 cancer cell lines; A549, Non-small cell lung cancer A549/ATCC, 10 μM): < 5%
inhibition at 10 µM (NCI 60 cancer cell lines; ACHN, Renal cancer ACHN, 10 μM): 14.1%
inhibition at 10 µM (NCI 60 cancer cell lines; BT-549, Breast cancer BT-549, 10 μM): 56.3%
inhibition at 10 µM (NCI 60 cancer cell lines; CAKI-1, Renal cancer CAKI-1, 10 μM): 21.5%
inhibition at 10 µM (NCI 60 cancer cell lines; CCRF-CEM, Leukemia CCRF-CEM, 10 μM): 52.2%
inhibition at 10 µM (NCI 60 cancer cell lines; COLO 205, Colon cancer COLO 205, 10 μM): < 5%
inhibition at 10 µM (NCI 60 cancer cell lines; DU-145, Prostate cancer DU-145, 10 μM): 10.9%
inhibition at 10 µM (NCI 60 cancer cell lines; EKVX, Non-small cell lung cancer EKVX, 10 μM): 10.1%
inhibition at 10 µM (NCI 60 cancer cell lines; HCC 2998, Colon cancer HCC-2998, 10 μM): < 5%
inhibition at 10 µM (NCI 60 cancer cell lines; HCT-15, Colon cancer HCT-15, 10 μM): < 5%
inhibition at 10 µM (NCI 60 cancer cell lines; HCT-116, Colon cancer HCT-116, 10 μM): 19.1%
inhibition at 10 µM (NCI 60 cancer cell lines; HL-60, Leukemia HL-60(TB), 10 μM): < 5%
inhibition at 10 µM (NCI 60 cancer cell lines; HOP-62, Non-small cell lung cancer HOP-62, 10 μM): 24.6%
inhibition at 10 µM (NCI 60 cancer cell lines; HOP-92, Non-small cell lung cancer HOP-92, 10 μM): < 5%
inhibition at 10 µM (NCI 60 cancer cell lines; HT-29, Colon cancer HT29, 10 μM): < 5%
inhibition at 10 µM (NCI 60 cancer cell lines; Hs-578T, Breast cancer HS 578T, 10 μM): 36.3%
inhibition at 10 µM (NCI 60 cancer cell lines; IGROV-1, Ovarian cancer IGROV1, 10 μM): 14.6%
inhibition at 10 µM (NCI 60 cancer cell lines; K562, Leukemia K-562, 10 μM): 29.7%
inhibition at 10 µM (NCI 60 cancer cell lines; KM12, Colon cancer KM12, 10 μM): 16.7%
inhibition at 10 µM (NCI 60 cancer cell lines; LOX IMVI, Melanoma LOX IMVI, 10 μM): 29%
inhibition at 10 µM (NCI 60 cancer cell lines; Leukemia SR, 10 μM): 71.6%
inhibition at 10 µM (NCI 60 cancer cell lines; MCF7, Breast cancer MCF7, 10 μM): 36.3%
inhibition at 10 µM (NCI 60 cancer cell lines; MDA-MB-231, Breast cancer MDA-MB-231/ATCC, 10 μM): 51.7%
inhibition at 10 µM (NCI 60 cancer cell lines; MDA-MB-435, Melanoma MDA-MB-435, 10 μM): 27.3%
inhibition at 10 µM (NCI 60 cancer cell lines; MDA-MB-468, Breast cancer MDA-MB-468, 10 μM): 47.2%
